In ChEMBL document CHEMBL3856263, “Sesquiterpenes from the roots of Lindera strychnifolia with inhibitory effects on nitric oxide production in RAW 264.7 cells” (Bioorg Med Chem Lett, 2016) one finds IC50 and Activity data, which are given here for 17 compounds.

A short description of data set [1]: Antiinflammatory activity against LPS-induced mouse RAW264.7 cells assessed as inhibition of NO production pretreated for 1 hr followed by LPS stimulation for 24 hrs by Griess assay. In kind it is functional, cell-based.
The species entered for a further data set is Mus musculus. As to the kind of experiment: Cytotoxicity against mouse RAW264.7 cells at <25 uM by MTT assay. It counts as toxicity, cell-based.

With `C=C1[C@H]2CC3=C(C)C(=O)O[C@H]3C[C@]2(C)[C@H]2C[C@@H]12`, the IC50 in data set [1] was determined as 15.4 µM. The Activity result in the data set listed under Mus musculus is given as “Non-Toxic”.
The like results for `COC(=O)/C(C)=C1\C(=O)O[C@]2(C)[C@@H]3C[C@@H]3[C@@](C)(CO)[C@H]2[C@@H]1O` were, in that order, more than 25 µM and “Non-Toxic”.
With `C=C1Cc2occ(C)c2C2C=C(CC[C@H]1O)C(=O)O2` (stereo not given in full), the IC50 in data set [1] was 9 µM. For the same compound, the Activity result in the data set filed under Mus musculus is “Non-Toxic”.
In the case of `C=C1[C@H]2C[C@H]2[C@]2(C)C[C@]3(O)OC(=O)C(C)=C3[C@H](OC(C)=O)[C@H]12`, in the data set filed under Mus musculus, the Activity entry is given as “Non-Toxic”.
For the compound `C=C1[C@H]2C[C@H]2[C@]2(C)C[C@@]3(O)OC(=O)C(C)=C3[C@H](OC)[C@H]12`, the IC50 in data set [1] worked out at 21.6 µM. Besides, the Activity result in the data set listed under Mus musculus is on record as “Non-Toxic”.
Turning to `CC1=C2[C@@H]3OC(=O)[C@@]4(CC/C=C(\C)C[C@@]2(O)OC1=O)O[C@@H]34`, the IC50 in data set [1] is more than 25 µM. In addition, in the data set filed under Mus musculus, the Activity result is given as “Non-Toxic”.
Turning to `C=C1CC=C[C@@]2(C)C[C@@]3(O)OC(=O)C(C)=C3C[C@H]12`, in data set [1], the IC50 was more than 25 µM. In addition, in the data set listed under Mus musculus, the Activity entry is “Non-Toxic”.
On to `CC(=O)O[C@H]1C2=C(C)C(=O)O[C@@]2(O)C[C@@]2(C)[C@@H]3C[C@@H]3[C@](C)(O)[C@@H]12`, for which the 50% inhibitory concentration (IC50) in data set [1] came to 12.8 µM. Further, the Activity result in the data set filed under Mus musculus is reported as “Non-Toxic”.
Consider `CC1=C2C[C@@H]3[C@@](C)(O)[C@H]4C[C@H]4[C@]3(C)C[C@]2(O)OC1=O`, for which, in data set [1], the IC50 stood at 9.6 µM. Further, the Activity entry in the data set filed under Mus musculus is “Non-Toxic”.
Regarding `C=C1[C@H]2C[C@H]2[C@]2(C)C[C@@]3(O)OC(=O)C(C)=C3[C@H](OC(C)=O)[C@H]12`, the Activity entry in the data set listed under Mus musculus is “Non-Toxic”.
Take `CC1=C2C[C@@H]3[C@@](C)(O)[C@H]4C[C@H]4[C@]3(C)C[C@@H]2OC1=O`: the Activity entry in the data set filed under Mus musculus is listed as “Non-Toxic”.
`C=C1[C@H]2C[C@H]2[C@]2(C)C[C@H]3OC(=O)C(C)=C3[C@H](O)[C@H]12`: in data set [1], the IC50 amounted to 12.3 µM. Besides, the Activity entry in the data set filed under Mus musculus was “Non-Toxic”.
In the case of `CO[C@@]1(C)[C@H]2C[C@H]2[C@]2(C)C[C@@H]3OC(=O)C(C)=C3C[C@@H]21`, in data set [1], the IC50 was 6.3 µM. In addition, the Activity entry in the data set filed under Mus musculus was “Non-Toxic”.
As to `CC1=C2C(=O)[C@@H]3[C@](C)(O)[C@H]4C[C@H]4[C@@]3(C)C[C@H]2OC1=O`, in data set [1], the IC50 is 22.5 µM. Further, the Activity entry in the data set filed under Mus musculus is given as “Non-Toxic”.
`CC1=C2[C@H](O)[C@@H]3[C@@](C)(O)[C@H]4C[C@H]4[C@]3(C)C[C@]2(O)OC1=O`: in data set [1], the IC50 came out at 14.6 µM. Also, in the data set filed under Mus musculus, the Activity result was “Non-Toxic”.
For `N=C(N)NN` [PIMAGEDINE], the IC50 in data set [1] turned out to be 18.4 µM.
Consider `Cc1coc2c1[C@H]1C=C(CC[C@@H]3O[C@@]3(C)C2)C(=O)O1` [PSEUDONEOLINDERANE], for which the IC50 in data set [1] was more than 25 µM. In addition, in the data set listed under Mus musculus, the Activity entry is reported as “Non-Toxic”.

Broadly, the IC50 is the midpoint of a concentration-inhibition curve.
